From patent US7781565B2 (priority 2006, dated 2010)
Entries after “also recorded” stand apart in the source; their conditions may differ.

The substances below were run on NCI-60 cell lines.
Type: cell-based, human
With WTKRGSV the “Cell Line with which the peptide (and its tripeptide motif) is associated” value (shortened to “Cell Line with which the peptide”) was “K-562-Leukemia”.
In the case of WTVGGRV, the “Cell Line the peptide is associated with (peptide recovered from phage library selection on this NCI-60 cell line)” value is reported as “A498 Renal”.
For WVGPSGG, the “Cell Line (NCI-60 cell line the peptide and its motif are associated with)” value was “SK-MEL-5 Melanoma”.
WVGSGSP was tested, and the “Cell Line with which the peptide” value was “Hop-92-Lung”.
WVGSSKF was tested, and the “Cell Line with which the peptide” value was “A549-Lung”.
For WVSGRLG, the “Cell Line (NCI-60 cell line the peptide is associated with)” value was “COLO-205-Colon”.
With WWAAVPG the “Cell Line the peptide is associated with (peptide recovered from phage library selection on this NCI-60 cell line)” value was “SN12C Renal”.
For WWGLGWL, the “Cell Line (NCI-60 cell line the peptide is associated with)” value was “HCC-2998-Colon”.
In the case of WYGGRGN, the “Cell Line (NCI-60 cell line the peptide and its motif are associated with)” value is reported as “OVCAR-4 Ovarian”.
YAAGGST was tested, and the “Cell Line (NCI-60 cell line the peptide and its motif are associated with)” value was “A498 Renal” and the “Cell Line the peptide is associated with (peptide recovered from phage library selection on this NCI-60 cell line)” value was “A498 Renal”.
For YAASLMG, the “Cell Line (NCI-60 cell line the peptide is associated with)” value was “SNB-75 CNS”.
With YADGAAV the “Cell Line (NCI-60 cell line the peptide is associated with)” value was “SF-295 CNS”.
YAGSGQL was tested, and the “Cell Line (NCI-60 cell line the peptide and its motif are associated with)” value was “OVCAR-8 Ovarian”.
YATLGSS was tested, and the “Cell Line (NCI-60 cell line the peptide and its motif are associated with)” value was “PC3 Prostate”.
YDGLVSG was tested, and the “Cell Line (NCI-60 cell line the peptide is associated with)” value was “COLO-205-Colon”.
YDGRLAR was tested, and the “Cell Line (NCI-60 cell line the peptide is associated with)” value was “SNB-19 CNS; also recorded: SF-539 CNS”.
YFRARGS was tested, and the “Cell Line (NCI-60 cell line the peptide and its motif are associated with)” value was 786-0 Renal.
In the case of YGALAGL, the “Cell Line (NCI-60 cell line the peptide and its motif are associated with)” value is reported as “PC3 Prostate”.
For YGESLLR, the “Cell Line (NCI-60 cell line the peptide is associated with)” value was “SNB-75 CNS”.
In the case of YGIGVRL, the “Cell Line with which the peptide” value is reported as “H23-Lung”.
For YGLRSLV, the “Cell Line the peptide is associated with (peptide recovered from phage library selection on this NCI-60 cell line)” value was “BT-549 Breast”.
In the case of YGQYGGL, the “Cell Line (NCI-60 cell line the peptide is associated with)” value is reported as “HCT-15 Colon”.
In the case of YGSGGRG, the “Cell Line (NCI-60 cell line the peptide is associated with)” value is reported as “HT-29 Colon”.
With YGSVALR the “Cell Line (NCI-60 cell line the peptide is associated with)” value was “H522-Lung”.
In the case of YGVSRLL, the “Cell Line (NCI-60 cell line the peptide and its motif are associated with)” value is reported as “DU-145 Prostate”.
YLAGGKA was tested, and the “Cell Line (NCI-60 cell line the peptide and its motif are associated with)” value was “IGROV1 Ovarian”.
For YLGLGGL, the “Cell Line (NCI-60 cell line the peptide and its motif are associated with)” value was “DU-145 Prostate”.
For YLGRRVS, the “Cell Line (NCI-60 cell line the peptide is associated with)” value was “SW620-Colon”.
For YLLRALG, the “Cell Line (NCI-60 cell line the peptide is associated with)” value was “SF-268 CNS”.
For YLRSAGM, the “Cell Line (NCI-60 cell line the peptide and its motif are associated with)” value was “PC3 Prostate”.
In the case of YMYHGRV, the “Cell Line (NCI-60 cell line the peptide and its motif are associated with)” value is reported as “OVCAR-4 Ovarian”.
With YNRSAGL the “Cell Line with which the peptide” value was “CCRF-CEM Leukemia”.
With YRALAGG the “Cell Line the peptide is associated with (peptide recovered from phage library selection on this NCI-60 cell line)” value was “MDA-MB-435-Breast”.
In the case of YRGSMVG, the “Cell Line (NCI-60 cell line the peptide is associated with)” value is reported as “COLO-205-Colon”.
In the case of YRGSSGK, the “Cell Line with which the peptide” value is reported as “RPMI-8226-Leukemia”.
With YRVSSGS the “Cell Line (NCI-60 cell line the peptide is associated with)” value was “SNB-75 CNS”.
With YSGRLVM the “Cell Line (NCI-60 cell line the peptide is associated with)” value was “SNB-75 CNS”.
YSGSSDF was tested, and the “Cell Line (NCI-60 cell line the peptide is associated with)” value was “COLO-205-Colon”.
YSIMRVS was tested, and the “Cell Line (NCI-60 cell line the peptide is associated with)” value was “SF-295 CNS”.
For YSQRSSL, the “Cell Line with which the peptide” value was “Hop-62-Lung”.
In the case of YTGSSPS, the “Cell Line (NCI-60 cell line the peptide and its motif are associated with)” value is reported as “SK-OV-3-3 Ovarian”.
For YVGGRLR, the “Cell Line (NCI-60 cell line the peptide and its motif are associated with)” value was “OVCAR-5 Ovarian”.
For YVGLVVS, the “Cell Line with which the peptide” value was “SR Leukemia”.
In the case of YVRIGRV, the “Cell Line (NCI-60 cell line the peptide is associated with)” value is reported as “HCT-15 Colon”.
In the case of YWFIGLG, the “Cell Line with which the peptide” value is reported as “EKVX-Lung”.
YWGGSVP was tested, and the “Cell Line the peptide is associated with (peptide recovered from phage library selection on this NCI-60 cell line)” value was “UO31 Renal”.
YWQHRVS was tested, and the “Cell Line (NCI-60 cell line the peptide is associated with)” value was “HCT-116 Colon”.
With YYAGGLK the “Cell Line with which the peptide” value was “Hop-62-Lung”.
YYGERSS was tested, and the “Cell Line (NCI-60 cell line the peptide and its motif are associated with)” value was “OVCAR-5 Ovarian”.
